Values after ≈ are worked out from the molar mass of the structure shown.

We go through one molecule from patent publication US8314217B2, “Cross-linked glycopeptide-cephalosporin antibiotics” (priority 2003, dated 2012).

The subject of experiment [1] is MRSA 33591. Nature of the experiment: Minimal inhibitory concentration (MIC), broth microdilution. The experiment is classed as cell-based, methicillin-resistant Staphylococcus aureus. As to conditions: Staphylococcus aureus, read-out: MIC MRSA 33591. On the procedure: (§1) Minimal inhibitory concentration (MICs) assays were performed using the broth microdilution method set forth in NCCLS guidelines (see, NCCLS. 2000. Methods for Dilution Antimicrobial Susceptibility Tests for Bacteria That Grow Aerobically; Approved Standard—Fifth Ed., Vol. 20, No. 2). Bacterial strains were obtained from the American Type Tissue Culture Collection (ATCC), Stanford University Hospital (SU), Kaiser Permanente Regional Laboratory in Berkeley (KPB), Massachusetts General Hospital (MGH), the Centers for Disease Control (CDC), the San Francisco Veterans' Administration Hospital (SFVA) or the University of California San Francisco Hospital (UCSF). Vancomycin-resistant enterococci were phenotyped as Van A or Van B based on their sensitivity to teicoplanin. Some vancomycin-resistant enterococci that had been genotyped as Van A, Van B, Van C1 or Van C2 were also obtained from the Mayo Clinic.
(§2) In this assay, cryopreserved bacterial cultures of reference and clinical strains were streaked for isolation on appropriate agar medium (i.e., Trypticase Soy Agar, Trypticase Soy Agar with defibrinated sheep erythrocytes, Brain Heart Infusion Agar, Chocolate Agar). Following incubation to allow formation of colonies, these plates were sealed with Parafilm® and stored refrigerated for up to two weeks. […] The MIC was read visually as the lowest concentration well with no bacterial growth. […]

In experiment [2] the test system is methicillin-susceptible Staphylococcus aureus (MSSA 13709) and methicillin-resistant Staphylococcus aureus (MRSA 33591). Nature of the experiment: In vivo efficacy in neutropenic mice (thigh infection). Details: species or system Male CD-1 mice. The conditions noted are these: iv, 24 h, read-out: ED50 (dose required to produce 50% of the maximum reduction in thigh titre). As to the method: Animals (Male CD-1 mice, 20-30 g) were acquired from Charles Rivers Laboratories (Gilroy, Calif.) and allowed access to food and water ad libitum. Neutropenia was induced via 200 mg/kg intraperitoneal (IP) injection of cyclophosphamide given four and two days prior to the inoculation of bacteria.
The organism used was either a susceptible or resistant strain of clinically relevant Gram-positive pathogens, such as methicillin-susceptible Staphylococcus aureus (MSSA 13709) and methicillin-resistant Staphylococcus aureus (MRSA 33591). The bacterial inoculum concentration was ˜10^6 CFU/mL. Animals were lightly anesthetized with isoflurane and […] of the bacterial inoculum was injected into the anterior thigh. One hour after the inoculation, animals were dosed intravenously with vehicle or the appropriate dose of the test compound. At 0 hours and 24 hours post-treatment, the animals were euthanized (CO2 asphyxiation) and the anterior and posterior thigh collected aseptically. The thigh was placed into 10 mL sterile saline and homogenized. Dilutions of the homogenate were plated onto triptic soy agar plates which were incubated overnight. The number of bacterial colonies on a given plate was multiplied by the dilution factor, divided by the thigh weight (in grams) and expressed as log CFU/g. […]

The subject of experiment [3] is MRSA 33591. Nature of the experiment: Time-kill assay. The experiment is classed as cell-based, methicillin-resistant Staphylococcus aureus. The conditions noted are these: MRSA 33591, in 24 hours. As to the method:
This time-kill assay is a method for measuring the rate of bactericidal activity of a test compound. […] A rapid time-kill is desirable to quickly prevent bacterial colonization and reduce host tissue damage.
Bacteria were diluted in prewarmed media in shake flasks and incubated with shaking (200 rpm, 35° C.). At 0, 1, 4, and 24 hours samples were withdrawn from the flasks and bacteria were enumerated by plate counting. Subsequent to the initial sampling, a compound to be assayed was added to the shake flask culture. Plate counts at these intervals previous to and following addition of the compound were expressed graphically in a time-kill curve.

Another experiment has as its system MSSA 13709. Nature of the experiment: Minimal inhibitory concentration (MIC), broth microdilution. The conditions noted are these: Staphylococcus aureus, read-out: MIC MSSA 13709. The experiment is classed as cell-based, methicillin-susceptible Staphylococcus aureus. On the procedure:
as §1, §2

Regarding `CN[C@H](CC(C)C)C(=O)N[C@H]1C(=O)N[C@@H](CC(N)=O)C(=O)N[C@H]2C(=O)N[C@H]3C(=O)N[C@H](C(=O)N[C@H](C(=O)O)c4cc(O)cc(O)c4-c4cc3ccc4O)[C@H](O)c3ccc(c(Cl)c3)Oc3cc2cc(c3O[C@@H]2O[C@H](CO)[C@@H](O)[C@H](O)[C@H]2O[C@H]2C[C@](C)(N)[C@H](O)[C@H](C)O2)Oc2ccc(cc2Cl)[C@H]1O` [Vancomycin], the MIC in the experiment with MRSA 33591 [1] is 2 µg/mL (≈ 1.38 µM); in the experiment on MSSA 13709 it was 1 µg/mL (≈ 0.69 µM). For the same molecule, the ED50 in experiment [2] was determined as 9 mg/kg. Also, the “bactericidal concentration (≧3 log decrease in bacterial cell numbers)” value with MRSA 33591 [3] is reported as 4 μg/mL.
